Measured values: ChEMBL document CHEMBL1212903, “Neuroprotective xanthone glycosides from Swertia punicea” (2010)

Assays:
[1] = test system: PC-12; assay: Neuroprotective activity in rat PC12 cells assessed as protection against H2O2-induced cell damage at 25 ug/ml after 1 hr by MTT assay relative to control; type: functional
[2] = test system: PC-12; assay: Neuroprotective activity in rat PC12 cells assessed as protection against H2O2-induced cell damage at 12.5 ug/ml after 1 hr by MTT assay relative to control; type: functional

SMILES	Activity [1] [%]	Activity [2] [%]
O=c1c2cc(O)c(O)cc2oc2c(-c3cc(O)c4oc5cc(O)cc(O)c5c(=O)c4c3O)c(O)c([C@@H]3O[C@H](CO)[C@@H](O)[C@H](O)[C@H]3O)c(O)c12	157.8	95.5
CC1=NN(c2ccccc2)C(=O)C1 [EDARAVONE]	86.9	74.3
O=c1c2c(oc3cc(O)c(-c4cc(O)c5oc6cc(O)cc(O)c6c(=O)c5c4O)c(O)c13)[C@H](O)CC[C@@H]2O[C@@H]1O[C@H](CO)[C@@H](O)[C@H](O)[C@H]1O [PUNICEASIDE B]	98.1	75.1
O=c1c2c(O)c(-c3cc(O)c4oc5cc(O)cc(O)c5c(=O)c4c3O)c(O)cc2oc2c(O)ccc(O[C@@H]3O[C@H](CO)[C@@H](O)[C@H](O)[C@H]3O)c12 [swertiabisxanthone I]	123	89.1
